# From PMC4548482 (Neuropharmacology, 2015)
# Key:
# [1] = target: T1, α7/5-HT3A subunit chimera (rat α7 N-terminal domain, mouse 5-HT3A transmembrane and C-terminal domain) (UniProt P23979+Q05941, M226I/T225I); test: Two-electrode voltage-clamp recording, α7/5-HT3A subunit chimera in Xenopus oocytes; type: cell-based; parameters: concentration or dose not given beside the values; details: α7/5-HT3A chimera; inhibition of agonist-evoked responses; mean ± SEM
# T1 construct: containing the extracellular/N-terminal domain of the rat α7 nAChR subunit; the transmembrane/C-terminal domain of the mouse 5-HT3A subunit; expressed in transfected cells; host or cells: Xenopus laevis oocytes
# Description: (§1) All plasmid constructs used in this study have been described previously. These include plasmids containing cDNAs encoding human α3, α4, α7, β2 and β4 nAChR subunits in pSP64GL ([Broadbent et al., 2006]); rat α7 nAChR subunit in pcDNA3 ([Cooper and Millar, 1997]); α7/5-HT3A subunit chimera (containing the rat α7 N-terminal domain and mouse 5-HT3A transmembrane and C-terminal domain) in pcDNA3 ([Cooper and Millar, 1998]); human RIC-3 in pRK5 ([Lansdell et al., 2005]) and mouse 5-HT3A ([Maricq et al., 1991]) in pRK5.
# (§2) Oocytes were isolated from adult female Xenopus laevis following procedures that have been approved by UCL's Biological Services Management Group and the UK Home Office. Oocytes were defolliculated as described previously ([Young et al., 2007]) by treatment with collagenase (2 mg/ml; Worthington Biochemicals, Freehold, NJ) in calcium-free Barth's solution containing 88 mM NaCl, 2.4 mM NaHCO3, 1 mM KCl, 0.82 mM MgSO4, and 15 mM Tris, pH 7.5. Heterologous expression was achieved by injection of wild-type or mutated α7 cRNA (6–12 ng) into oocyte cytoplasm. Oocytes were injected in a volume of 20–30 nl using a Drummond variable volume microinjector. After injection, oocytes were incubated at 18 °C in a calcium-containing Barth's solution (composition, as above, but with 0.77 mM CaCl2) supplemented with antibiotics (100 units/ml penicillin, 100 μg/ml streptomycin, 4 μg/ml kanamycin, and 50 μg/ml tetracycline). Experiments were performed on oocytes after 3–5 days of incubation. […] Two-electrode voltage-clamp recordings were performed (with the oocyte membrane potential held at −60 mV), as described previously ([Gill et al., 2012; Young et al., 2007]).
# [2] = target: T2, human α7 nAChRs (Homo sapiens, UniProt P36544); test: Two-electrode voltage-clamp recording, wild-type human α7 nAChRs expressed in Xenopus oocytes; type: cell-based; details: for Fold potentiation: Human α7, maximum fold potentiation of responses to an EC50 of acetylcholine (100 μM), mean ± SEM; for Imax: Wild-type α7, normalised to the maximum response to acetylcholine; for Effect on rate of desensitisation of acetylcholine-evoked responses: wild-type α7, acetylcholine 100 μM, pre- and co-application of PAM; for Desensitisation after receptor reactivation: acetylcholine co-applied with compound, period of 30 s; for Total net charge transfer relative to initial application of acetylcholine alone: measured during a 30 s application of compound in continued presence of acetylcholine (100 μM)
# T2 construct: expressed in transfected cells; host or cells: Xenopus laevis oocytes (cRNA injection)
# Protocol: All plasmid constructs used in this study have been described previously.
# (§3) Oocytes were isolated from adult female Xenopus laevis following procedures that have been approved by UCL's Biological Services Management Group and the UK Home Office. […] Heterologous expression was achieved by injection of wild-type or mutated α7 cRNA (6–12 ng) into oocyte cytoplasm. Oocytes were injected in a volume of 20–30 nl using a Drummond variable volume microinjector. […] Experiments were performed on oocytes after 3–5 days of incubation.
# [3] = target: T2, human α7 nAChRs; type: binding; details: [3H]-α-bungarotoxin 1 nM; tsA201 cells
# [4] = target: T3, human α4β2 nAChRs (Homo sapiens, UniProt P17787+P43681); test: Two-electrode voltage-clamp recording, human α4β2 nAChRs in Xenopus oocytes; type: cell-based; parameters: concentration or dose not given beside the values; details: inhibition of agonist-evoked responses, mean ± SEM
# T3 construct: expressed in transfected cells; host or cells: Xenopus laevis oocytes
# Description: as §1, §2
# [5] = target: T4, human α3β4 nAChRs (Homo sapiens, UniProt P30926+P32297); test: Two-electrode voltage-clamp recording, human α3β4 nAChRs in Xenopus oocytes; type: cell-based; parameters: concentration or dose not given beside the values; details: inhibition of agonist-evoked responses, mean ± SEM
# T4 construct: expressed in transfected cells; host or cells: Xenopus laevis oocytes
# Description: as §1, §2
# [6] = target: T5, α7 L247T nAChRs (Homo sapiens, UniProt P36544, L270T); test: Two-electrode voltage-clamp recording, human α7 nAChRs containing the L247T mutation in Xenopus oocytes; type: cell-based; details: α7 L247T; for nH (Hill coefficient) / EC50: mean ± SEM; for EC50: read-out: EC50 (agonist); for Imax: normalised to the maximum response to acetylcholine
# T5 construct: expressed in transfected cells; host or cells: Xenopus laevis oocytes (cRNA injection)
# Protocol: (§4) Site-directed mutagenesis was performed on human nAChR α7 subunit cDNA in plasmid pSP64GL using the QuikChange mutagenesis kit (Stratagene) and verified by nucleotide sequencing. Plasmid pSP64GL containing wild-type or mutated human α7 cDNA was linearized with BamHI and purified with QIAQuik PCR purification kit (Qiagen). In vitro synthesis of cRNA was performed using mMessage mMachine SP6 transcription kit (Life Technologies).
# as §3
# [7] = target: T6, mouse 5-HT3A (Mus musculus, UniProt P23979); test: Two-electrode voltage-clamp recording, mouse 5-HT3ARs in Xenopus oocytes; type: cell-based; parameters: concentration or dose not given beside the values; details: inhibition of agonist-evoked responses, mean ± SEM
# T6 construct: expressed in transfected cells; host or cells: Xenopus laevis oocytes
# T6 sequence (P23979 24-489): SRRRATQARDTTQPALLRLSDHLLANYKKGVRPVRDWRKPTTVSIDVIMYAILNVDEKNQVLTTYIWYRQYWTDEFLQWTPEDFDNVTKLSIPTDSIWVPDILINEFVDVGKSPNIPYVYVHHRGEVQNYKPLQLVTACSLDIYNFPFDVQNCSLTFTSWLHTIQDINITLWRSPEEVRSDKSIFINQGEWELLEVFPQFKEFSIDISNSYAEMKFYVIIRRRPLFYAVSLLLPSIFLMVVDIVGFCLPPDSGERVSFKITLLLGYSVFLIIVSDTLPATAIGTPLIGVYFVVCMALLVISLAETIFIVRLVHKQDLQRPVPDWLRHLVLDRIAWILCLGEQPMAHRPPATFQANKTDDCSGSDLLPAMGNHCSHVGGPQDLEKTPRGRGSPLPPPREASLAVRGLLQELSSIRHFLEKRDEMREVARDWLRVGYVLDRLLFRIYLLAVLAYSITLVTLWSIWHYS
# Description: as §1, §2
# [8] = target: T7, rat α7 nAChRs (Rattus norvegicus, UniProt Q05941); test: Two-electrode voltage-clamp recording, rat α7 nAChRs in Xenopus oocytes; type: cell-based; details: mean ± SEM
# T7 construct: expressed in transfected cells; host or cells: Xenopus laevis oocytes
# Description: as §1, §2
# [9] = target: T8, α7 M260L nAChRs (Homo sapiens, UniProt P36544, M283L); test: Two-electrode voltage-clamp recording, human α7 nAChRs containing the M260L mutation in Xenopus oocytes; type: cell-based; details: for Fold potentiation (maximum peak response compared to acetylcholine alone): acetylcholine 100 μM, pre- and co-application of modulator (10 μM); for Agonist effect on M260L receptors: compound applied alone; for Imax: normalised to the maximum response to acetylcholine
# T8 construct: expressed in transfected cells; host or cells: Xenopus laevis oocytes (cRNA injection)
# Protocol: as §4, §3
# [10] = wild-type α7 desensitised by continued acetylcholine (100 μM), compound 10 μM
# [11] = M260L α7, type I PAM 10 μM pre-applied for 10 s then co-applied, n = 3
# T5 sequence (P36544 23-502 L270T): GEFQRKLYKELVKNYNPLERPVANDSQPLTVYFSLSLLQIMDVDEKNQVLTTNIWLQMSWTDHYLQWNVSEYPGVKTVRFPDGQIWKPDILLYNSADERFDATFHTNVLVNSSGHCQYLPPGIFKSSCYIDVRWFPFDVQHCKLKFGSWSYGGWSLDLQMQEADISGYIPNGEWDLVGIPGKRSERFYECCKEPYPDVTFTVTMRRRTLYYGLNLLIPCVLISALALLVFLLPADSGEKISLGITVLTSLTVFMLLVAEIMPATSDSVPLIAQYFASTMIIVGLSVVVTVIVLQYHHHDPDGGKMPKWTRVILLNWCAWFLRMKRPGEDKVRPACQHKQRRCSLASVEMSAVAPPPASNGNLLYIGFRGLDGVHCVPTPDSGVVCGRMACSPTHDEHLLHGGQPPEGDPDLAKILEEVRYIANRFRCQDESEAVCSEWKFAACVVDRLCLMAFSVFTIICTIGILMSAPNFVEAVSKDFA
# T3 sequence (P43681 29-627 limits assumed): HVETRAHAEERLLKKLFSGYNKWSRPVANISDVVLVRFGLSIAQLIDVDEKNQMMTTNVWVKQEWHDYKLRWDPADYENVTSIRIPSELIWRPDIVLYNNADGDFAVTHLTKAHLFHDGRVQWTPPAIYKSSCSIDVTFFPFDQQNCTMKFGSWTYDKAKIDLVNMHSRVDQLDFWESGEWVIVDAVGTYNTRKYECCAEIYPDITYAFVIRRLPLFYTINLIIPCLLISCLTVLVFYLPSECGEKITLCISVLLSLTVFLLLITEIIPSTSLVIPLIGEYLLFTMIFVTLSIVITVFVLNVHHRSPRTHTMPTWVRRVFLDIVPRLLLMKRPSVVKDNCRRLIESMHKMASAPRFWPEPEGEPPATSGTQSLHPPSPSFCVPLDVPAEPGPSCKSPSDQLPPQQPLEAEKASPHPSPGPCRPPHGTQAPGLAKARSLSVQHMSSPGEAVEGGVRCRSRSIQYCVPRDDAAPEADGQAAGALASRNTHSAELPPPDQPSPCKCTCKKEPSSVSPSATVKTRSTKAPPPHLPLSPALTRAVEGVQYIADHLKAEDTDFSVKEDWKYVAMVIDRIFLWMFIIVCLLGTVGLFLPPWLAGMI
# T3 sequence (P17787 26-502): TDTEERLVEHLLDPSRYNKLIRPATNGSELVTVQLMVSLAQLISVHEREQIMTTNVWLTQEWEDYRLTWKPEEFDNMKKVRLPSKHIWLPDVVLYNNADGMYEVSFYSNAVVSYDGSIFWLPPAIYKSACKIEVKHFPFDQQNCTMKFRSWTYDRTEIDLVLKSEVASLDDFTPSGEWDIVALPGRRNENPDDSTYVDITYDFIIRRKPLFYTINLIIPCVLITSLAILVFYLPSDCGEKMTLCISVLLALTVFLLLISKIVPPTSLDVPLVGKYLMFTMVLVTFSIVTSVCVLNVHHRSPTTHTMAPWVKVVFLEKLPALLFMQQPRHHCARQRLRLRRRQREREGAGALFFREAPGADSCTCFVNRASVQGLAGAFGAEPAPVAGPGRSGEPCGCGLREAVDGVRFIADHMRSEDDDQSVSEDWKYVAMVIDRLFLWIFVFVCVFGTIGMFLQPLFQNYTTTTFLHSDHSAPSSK
# T8 sequence (P36544 23-502 M283L): as the sequence (P36544 23-502 L270T) above, with T248L, M261L counted along it
# T2 sequence (P36544 23-502): as the sequence (P36544 23-502 L270T) above, with T248L counted along it
# T7 sequence (Q05941 23-502): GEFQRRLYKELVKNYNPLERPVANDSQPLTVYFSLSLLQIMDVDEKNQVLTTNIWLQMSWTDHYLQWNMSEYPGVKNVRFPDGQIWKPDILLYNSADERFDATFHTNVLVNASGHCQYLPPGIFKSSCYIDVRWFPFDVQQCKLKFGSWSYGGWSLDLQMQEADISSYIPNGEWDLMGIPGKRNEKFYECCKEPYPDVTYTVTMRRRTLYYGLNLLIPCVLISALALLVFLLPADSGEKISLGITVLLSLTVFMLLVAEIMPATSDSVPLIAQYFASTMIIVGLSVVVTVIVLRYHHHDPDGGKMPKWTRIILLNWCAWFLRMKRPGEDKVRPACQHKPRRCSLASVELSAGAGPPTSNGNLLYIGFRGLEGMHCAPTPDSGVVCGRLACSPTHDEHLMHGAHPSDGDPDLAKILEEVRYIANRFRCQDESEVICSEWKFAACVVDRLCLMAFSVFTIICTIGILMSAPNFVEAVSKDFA
# T4 sequence (P32297 32-505): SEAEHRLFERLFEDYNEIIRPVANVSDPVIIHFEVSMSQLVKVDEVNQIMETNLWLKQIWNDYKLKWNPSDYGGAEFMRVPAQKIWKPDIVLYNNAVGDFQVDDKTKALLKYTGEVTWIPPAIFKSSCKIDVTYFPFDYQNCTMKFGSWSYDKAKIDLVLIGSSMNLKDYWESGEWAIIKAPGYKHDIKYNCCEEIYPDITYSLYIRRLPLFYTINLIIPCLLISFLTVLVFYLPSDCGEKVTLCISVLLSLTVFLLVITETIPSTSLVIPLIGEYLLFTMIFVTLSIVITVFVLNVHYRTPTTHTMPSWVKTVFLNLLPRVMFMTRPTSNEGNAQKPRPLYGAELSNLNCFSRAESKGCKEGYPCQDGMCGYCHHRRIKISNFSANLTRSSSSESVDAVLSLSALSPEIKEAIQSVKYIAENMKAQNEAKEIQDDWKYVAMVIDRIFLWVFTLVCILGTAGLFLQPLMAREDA
# T4 sequence (P30926 22-498): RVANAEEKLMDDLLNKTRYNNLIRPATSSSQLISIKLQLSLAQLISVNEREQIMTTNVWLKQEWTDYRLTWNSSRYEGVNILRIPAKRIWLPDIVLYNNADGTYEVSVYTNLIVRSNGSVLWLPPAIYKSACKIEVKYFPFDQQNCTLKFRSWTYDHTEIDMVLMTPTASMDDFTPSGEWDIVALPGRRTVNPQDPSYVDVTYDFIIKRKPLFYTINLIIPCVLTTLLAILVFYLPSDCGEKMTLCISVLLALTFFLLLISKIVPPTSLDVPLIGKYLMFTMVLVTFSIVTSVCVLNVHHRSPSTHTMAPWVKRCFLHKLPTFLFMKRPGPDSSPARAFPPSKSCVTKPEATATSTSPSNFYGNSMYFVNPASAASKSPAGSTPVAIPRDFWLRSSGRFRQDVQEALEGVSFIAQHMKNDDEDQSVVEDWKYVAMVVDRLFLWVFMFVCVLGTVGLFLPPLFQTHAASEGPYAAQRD
# T1 sequence (Q05941+P23979 fused Q05941:T225I/Q05941:M226I): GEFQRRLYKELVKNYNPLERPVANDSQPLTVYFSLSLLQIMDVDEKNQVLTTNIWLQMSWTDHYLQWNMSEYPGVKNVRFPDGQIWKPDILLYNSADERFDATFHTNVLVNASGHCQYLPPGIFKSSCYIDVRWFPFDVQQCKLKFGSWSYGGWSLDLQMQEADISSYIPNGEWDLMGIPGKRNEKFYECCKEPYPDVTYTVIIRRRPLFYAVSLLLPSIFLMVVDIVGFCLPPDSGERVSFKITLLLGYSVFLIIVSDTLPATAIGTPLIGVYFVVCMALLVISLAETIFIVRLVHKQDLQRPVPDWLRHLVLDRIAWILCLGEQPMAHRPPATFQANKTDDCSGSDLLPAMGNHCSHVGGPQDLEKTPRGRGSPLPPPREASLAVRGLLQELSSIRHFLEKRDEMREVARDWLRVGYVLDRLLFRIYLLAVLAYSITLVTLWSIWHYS
Compound,% Inhibition [1] [%],Fold potentiation [2] [fold],Imax [2],Effect on rate of desensitisation of acetylcholine-evoked responses [2],"Recovery from desensitisation (reactivation of desensitised receptors) [2, 10]",Displacement of [3H]-α-bungarotoxin binding [3],% Inhibition [4] [%],% Inhibition [5] [%],nH (Hill coefficient) [6],EC50 [6] [nM],Imax [6],melting point [°C],% Inhibition [7] [%],Fold potentiation [8] [fold],Fold potentiation (maximum peak response compared to acetylcholine alone) ([9]; M260L α7) [fold],Agonist effect on M260L receptors [9],Imax ([9]; α7 M260L),Desensitisation after receptor reactivation [2],Total net charge transfer relative to initial application of acetylcholine alone [2] [fold],"Response on reactivation of desensitised receptors as % of the response to 100 μM acetylcholine [2, 10] [%]",also measured
"COc1ccc(-c2nc(-c3ccc(Br)cc3)nn2-c2ccc(S(N)(=O)=O)cc2)cc1 [TBS-346, 4-(3-(4-bromophenyl)-5-(4-methoxyphenyl)-1H-1,2,4-triazol-1-yl)benzenesulfonamide]",13.4 ± 7.7,10.5 ± 2.5,0.0 ± 0.0,minimal changes to desensitisation,no detectable responses,no significant displacement,23.1 ± 5.7,68.4 ± 3.0,1.7 ± 0.3,100 ± 40,0.9 ± 0.1,290 to 294,30.8 ± 15.5,8.7 ± 5.3,2.8 ± 0.6,no agonist effect,0.0 ± 0.0,,,,"Block of agonist responses to TBS-516 (10 μM) [9, 11]: 83.4 ± 4.1%; Block of agonist responses to TQS (10 μM) [9, 11]: 95.7 ± 1.1%"
"NS(=O)(=O)c1ccc(-n2nc(-c3ccc(Br)cc3)nc2Cc2ccccc2)cc1 [TBS-516, 4-(5-benzyl-3-(4-bromophenyl)-1H-1,2,4-triazol-1-yl)benzenesulfonamide]",9.2 ± 12.8,11.3 ± 3.1,0.0 ± 0.0,dramatic slowing of desensitisation,caused recovery from desensitisation,no significant displacement,1.7 ± 0.4,31.1 ± 0.6,2.5 ± 0.3,200 ± 40,1.1 ± 0.1,203 to 205,10.4 ± 7.5,3.6 ± 1.0,8.0 ± 3.1,converted into agonists,3.7 ± 0.6,no desensitisation was observed,250 ± 71,,"Response on reactivation of desensitised receptors relative to response to 100 μM acetylcholine [2, 10]: 3.2 ± 0.9 fold; nH (Hill coefficient) ([9]; α7 M260L, mean ± SEM): 1.8 ± 0.3; EC50 ([9]; α7 M260L, mean ± SEM, read-out: EC50 (agonist)): 8900 ± 2500 nM"
"NS(=O)(=O)c1ccc(-n2nc(-c3ccc(Br)cc3)nc2CCc2ccccc2)cc1 [TBS-556, 4-(3-(4-bromophenyl)-5-phenethyl-1H-1,2,4-triazol-1-yl)benzenesulfonamide]",1.0 ± 1.0,4.7 ± 0.2,,intermediate between those of classical type I and type II PAMs,caused recovery from desensitisation,no significant displacement,3.2 ± 0.9,16 ± 13,,,,184 to 186,10 ± 1.9,4.3 ± 0.6,6.6 ± 1.0,converted into agonists,,no desensitisation was observed,27 ± 6,57.3 ± 10.1,
"NS(=O)(=O)c1ccc(-n2nc(-c3ccc(Br)cc3)nc2-c2ccccc2)cc1 [TBS-345, 4-(3-(4-bromophenyl)-5-phenyl-1H-1,2,4-triazol-1-yl)benzenesulfonamide]",47.3 ± 10.1,8.8 ± 1.5,,intermediate between those of classical type I and type II PAMs,caused recovery from desensitisation,no significant displacement,20.1 ± 19.0,53.7 ± 18.3,,,,182 to 186,18.3 ± 13.3,10.9 ± 0.73,6.2 ± 1.2,no agonist effect,,no desensitisation was observed,12 ± 2,23.0 ± 2.1,
